# Measured values as given in patent US12527779B2, “Prostaglandin E2 (PGE2) EP4 receptor antagonists” (Domain Therapeutics, priority 2019, dated 2026).
# Columns and labels:
# [1] = biological target: T1, human EP4 (hEP4) receptor (Homo sapiens, UniProt P35408); experiment: In vitro human EP4 functional antagonist activity using BRET biosensors (cAMP EPAC biosensor, TCS2510 stimulation); type: cell-based; conditions: antagonist activity vs EC60 TCS2510, hEP4 in HEK-293 T cells
# T1 construct: expressed in transfected cells; host or cells: HEK-293 T cells, transient co-transfection with polyethylenimine
# T1 sequence (P35408 whole entry): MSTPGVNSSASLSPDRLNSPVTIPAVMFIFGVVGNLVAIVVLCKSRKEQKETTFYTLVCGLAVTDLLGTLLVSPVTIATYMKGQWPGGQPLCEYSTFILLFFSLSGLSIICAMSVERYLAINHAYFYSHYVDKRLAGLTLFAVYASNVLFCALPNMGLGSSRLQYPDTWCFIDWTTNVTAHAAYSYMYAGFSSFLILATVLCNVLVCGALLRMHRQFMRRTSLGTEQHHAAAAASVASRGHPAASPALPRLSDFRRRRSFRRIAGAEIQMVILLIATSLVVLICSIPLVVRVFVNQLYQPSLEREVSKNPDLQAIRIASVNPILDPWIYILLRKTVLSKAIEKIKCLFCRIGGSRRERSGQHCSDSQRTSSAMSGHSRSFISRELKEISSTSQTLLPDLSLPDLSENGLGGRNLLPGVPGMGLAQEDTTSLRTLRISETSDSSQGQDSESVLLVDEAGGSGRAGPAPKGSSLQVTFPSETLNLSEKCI
# In short: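 Antagonism measured as inhibition of EC60 TCS2510-induced cAMP BRET signal (EPAC luciferase/GFP sensor) in transiently hEP4-expressing HEK-293T cells, following 5 min compound preincubation and 10 min luminescence recording. Plates equilibrated 1 h at 22 °C in HEPES buffer; 10 concentrations over 4.5 logs, duplicate in two independent experiments, sigmoidal variable-slope IC50.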
# Pan02 tumor cells = experiment: In vivo anti-tumoral activity of Example 166 in a Pan02 tumor model; set-up: species or system C57BL/6 mice
# Procedure: Pan02 tumor cells were maintained in vitro as a monolayer culture in RPM11640 medium supplemented with 10% fetal bovine serum at 37° C. in an atmosphere of 5% CO2 in air. The cells were routinely subcultured twice weekly by trypsin-EDTA treatment. The cells in an exponential growth phase were harvested and counted for tumor inoculation. Female C57BL/6 mice were inoculated subcutaneously in the right rear flank region with Pan02 tumor cells (3×10^6) in 0.1 ml of PBS for tumor development on day 0. Tumor volumes were measured thrice per week in two dimensions using a caliper, and the volume was expressed in mm^3 using the formula: “V=(L×W×W)/2”, where V is tumor volume, L is tumor length (the longest tumor dimension) and W is tumor width (the longest tumor dimension perpendicular to L). When the mean tumor size reached approximately 100 mm^3, mice were randomly allocated into groups (10 mice per group) and treated with or without the compound of Example 166 (3, 10, 30, 100 or 300 mg/kg, po, QD, 5% DMSO/95% (10% w/v solution of HP-β-CD in water) v/v) for at least 3 weeks). Animals were checked daily for morbidity and mortality. During routine monitoring, the animals were checked for any effects on tumor growth and treatments on behavior such as mobility, food and water consumption, body weight gain/loss (body weights were measured thrice per week), eye/hair matting and any other abnormalities. Dosing as well as tumor and body weight measurements were conducted in a Laminar Flow Cabinet. The body weights and tumor volumes were monitored by using StudyDirector™ software (version 3.1.399.19).
smiles,measurement,setting,value
"C[C@H](NC(=O)C1(N2CC[C@@H](Oc3cccc(C(F)(F)F)c3)C2)CC1)c1ccc(C(=O)O)cc1.Cl [Example 166, 4-[(1S)-1-[[1-[(3R)-3-[3-(Trifluoromethyl)phenoxy]pyrrolidin-1-yl]cyclopropane-1-carbonyl]amino]ethyl]benzoic acid, hydrochloride]",IC50,[1],< 100 nM
same,Tumor Growth Inhibition TGI (%),"Pan02 tumor cells; 3 mg/kg po QD, day 0",0.0%
same,Tumor Growth Inhibition TGI (%),"Pan02 tumor cells; 3 mg/kg po QD, day 4",8.2%
same,Tumor Growth Inhibition TGI (%),"Pan02 tumor cells; 3 mg/kg po QD, day 7",2.9%
same,Tumor Growth Inhibition TGI (%),"Pan02 tumor cells; 3 mg/kg po QD, day 9",2.3%
same,Tumor Growth Inhibition TGI (%),"Pan02 tumor cells; 3 mg/kg po QD, day 11",−8.0%
same,Tumor Growth Inhibition TGI (%),"Pan02 tumor cells; 3 mg/kg po QD, day 14",−5.6%
same,Tumor Growth Inhibition TGI (%),"Pan02 tumor cells; 3 mg/kg po QD, day 16",10.7%
same,Tumor Growth Inhibition TGI (%),"Pan02 tumor cells; 3 mg/kg po QD, day 18",9.1%
same,Tumor Growth Inhibition TGI (%),"Pan02 tumor cells; 3 mg/kg po QD, day 21",−1.4%
same,Tumor Growth Inhibition TGI (%),"Pan02 tumor cells; 10 mg/kg po QD, day 0",0.0%
same,Tumor Growth Inhibition TGI (%),"Pan02 tumor cells; 10 mg/kg po QD, day 4",14.3%
same,Tumor Growth Inhibition TGI (%),"Pan02 tumor cells; 10 mg/kg po QD, day 7",−2.3%
same,Tumor Growth Inhibition TGI (%),"Pan02 tumor cells; 10 mg/kg po QD, day 9",0.8%
same,Tumor Growth Inhibition TGI (%),"Pan02 tumor cells; 10 mg/kg po QD, day 11",2.4%
same,Tumor Growth Inhibition TGI (%),"Pan02 tumor cells; 10 mg/kg po QD, day 14",11.1%
same,Tumor Growth Inhibition TGI (%),"Pan02 tumor cells; 10 mg/kg po QD, day 16",21.1%
same,Tumor Growth Inhibition TGI (%),"Pan02 tumor cells; 10 mg/kg po QD, day 18",22.4%
same,Tumor Growth Inhibition TGI (%),"Pan02 tumor cells; 10 mg/kg po QD, day 21",16.2%
same,Tumor Growth Inhibition TGI (%),"Pan02 tumor cells; 30 mg/kg po QD, day 0",0.0%
same,Tumor Growth Inhibition TGI (%),"Pan02 tumor cells; 30 mg/kg po QD, day 4",17.5%
same,Tumor Growth Inhibition TGI (%),"Pan02 tumor cells; 30 mg/kg po QD, day 7",19.0%
same,Tumor Growth Inhibition TGI (%),"Pan02 tumor cells; 30 mg/kg po QD, day 9",16.3%
same,Tumor Growth Inhibition TGI (%),"Pan02 tumor cells; 30 mg/kg po QD, day 11",−8.2%
same,Tumor Growth Inhibition TGI (%),"Pan02 tumor cells; 30 mg/kg po QD, day 14",5.7%
same,Tumor Growth Inhibition TGI (%),"Pan02 tumor cells; 30 mg/kg po QD, day 16",9.7%
same,Tumor Growth Inhibition TGI (%),"Pan02 tumor cells; 30 mg/kg po QD, day 18",13.9%
same,Tumor Growth Inhibition TGI (%),"Pan02 tumor cells; 30 mg/kg po QD, day 21",7.4%
same,Tumor Growth Inhibition TGI (%),"Pan02 tumor cells; 100 mg/kg po QD, day 0",0.0%
same,Tumor Growth Inhibition TGI (%),"Pan02 tumor cells; 100 mg/kg po QD, day 4",17.1%
same,Tumor Growth Inhibition TGI (%),"Pan02 tumor cells; 100 mg/kg po QD, day 7",21.4%
same,Tumor Growth Inhibition TGI (%),"Pan02 tumor cells; 100 mg/kg po QD, day 9",20.8%
same,Tumor Growth Inhibition TGI (%),"Pan02 tumor cells; 100 mg/kg po QD, day 11",23.7%
same,Tumor Growth Inhibition TGI (%),"Pan02 tumor cells; 100 mg/kg po QD, day 14",44.3%
same,Tumor Growth Inhibition TGI (%),"Pan02 tumor cells; 100 mg/kg po QD, day 16",42.2%
same,Tumor Growth Inhibition TGI (%),"Pan02 tumor cells; 100 mg/kg po QD, day 18, hydrochloride",48.2%
same,Tumor Growth Inhibition TGI (%),"Pan02 tumor cells; 100 mg/kg po QD, day 21",42.6%
same,Tumor Growth Inhibition TGI (%),"Pan02 tumor cells; 300 mg/kg po QD, day 0",0.0%
same,Tumor Growth Inhibition TGI (%),"Pan02 tumor cells; 300 mg/kg po QD, day 4",14.3%
same,Tumor Growth Inhibition TGI (%),"Pan02 tumor cells; 300 mg/kg po QD, day 7",−2.5%
same,Tumor Growth Inhibition TGI (%),"Pan02 tumor cells; 300 mg/kg po QD, day 9",−0.7%
same,Tumor Growth Inhibition TGI (%),"Pan02 tumor cells; 300 mg/kg po QD, day 11",−5.6%
same,Tumor Growth Inhibition TGI (%),"Pan02 tumor cells; 300 mg/kg po QD, day 14",11.8%
same,Tumor Growth Inhibition TGI (%),"Pan02 tumor cells; 300 mg/kg po QD, day 16",24.7%
same,Tumor Growth Inhibition TGI (%),"Pan02 tumor cells; 300 mg/kg po QD, day 18, hydrochloride",32.9%
same,Tumor Growth Inhibition TGI (%),"Pan02 tumor cells; 300 mg/kg po QD, day 21",32.8%
